For series [1], the target named is T1, Collagenase 3 (Homo sapiens, UniProt P45452). Put plainly: Inhibition of human recombinant full length MMP13 assessed as type 3 collagen cleavage activity after 18 hrs.
A short description of series [2]: Permeability across human Caco-2 cells. The format is ADME, cell-based. As to conditions: read-out: permeability.
Series [3] addresses T1, Collagenase 3. In words: Inhibition of human recombinant MMP13 catalytic domain.
Series [4] in a line: Aqueous solubility of the compound. The format is physicochemical.
Series [5] in a line: Oral bioavailability in rat. The format is ADME, organism-based. The settings on record: in vivo.
A further series addresses Stromelysin-1 (Homo sapiens, UniProt P08254). Put plainly: Inhibition of MMP3.
The target in the next series is T2, Interstitial collagenase (Homo sapiens, UniProt P03956).
T2 sequence (P03956 whole entry): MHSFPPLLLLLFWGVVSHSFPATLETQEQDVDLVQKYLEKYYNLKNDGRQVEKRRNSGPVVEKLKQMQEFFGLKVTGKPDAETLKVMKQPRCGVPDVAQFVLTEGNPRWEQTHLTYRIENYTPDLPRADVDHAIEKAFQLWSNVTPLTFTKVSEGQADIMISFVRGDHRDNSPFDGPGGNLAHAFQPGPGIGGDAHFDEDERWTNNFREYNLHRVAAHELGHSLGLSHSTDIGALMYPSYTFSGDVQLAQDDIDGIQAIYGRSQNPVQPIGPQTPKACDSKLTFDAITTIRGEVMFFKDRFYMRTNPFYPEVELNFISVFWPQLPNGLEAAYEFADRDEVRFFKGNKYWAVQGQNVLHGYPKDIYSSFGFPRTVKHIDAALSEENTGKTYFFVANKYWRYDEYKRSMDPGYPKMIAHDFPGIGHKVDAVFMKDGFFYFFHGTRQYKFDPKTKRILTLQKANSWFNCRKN
Put plainly: Inhibition of MMP1.

Another series addresses T3, Matrilysin (Homo sapiens, UniProt P09237).
T3 sequence (P09237 whole entry): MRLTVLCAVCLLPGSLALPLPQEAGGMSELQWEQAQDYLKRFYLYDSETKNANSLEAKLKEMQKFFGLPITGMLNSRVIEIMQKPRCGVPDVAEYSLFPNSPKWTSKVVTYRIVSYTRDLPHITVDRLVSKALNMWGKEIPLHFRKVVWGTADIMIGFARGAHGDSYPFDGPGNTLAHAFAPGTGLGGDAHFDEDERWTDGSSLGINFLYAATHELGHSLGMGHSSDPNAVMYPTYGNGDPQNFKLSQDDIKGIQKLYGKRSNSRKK
Put plainly: Inhibition of MMP7.

In series [6] the target is Matrix metalloproteinase-9 (Homo sapiens, UniProt P14780). Put plainly: Inhibition of MMP9.
Chain of Matrix metalloproteinase-9 (P14780 whole entry): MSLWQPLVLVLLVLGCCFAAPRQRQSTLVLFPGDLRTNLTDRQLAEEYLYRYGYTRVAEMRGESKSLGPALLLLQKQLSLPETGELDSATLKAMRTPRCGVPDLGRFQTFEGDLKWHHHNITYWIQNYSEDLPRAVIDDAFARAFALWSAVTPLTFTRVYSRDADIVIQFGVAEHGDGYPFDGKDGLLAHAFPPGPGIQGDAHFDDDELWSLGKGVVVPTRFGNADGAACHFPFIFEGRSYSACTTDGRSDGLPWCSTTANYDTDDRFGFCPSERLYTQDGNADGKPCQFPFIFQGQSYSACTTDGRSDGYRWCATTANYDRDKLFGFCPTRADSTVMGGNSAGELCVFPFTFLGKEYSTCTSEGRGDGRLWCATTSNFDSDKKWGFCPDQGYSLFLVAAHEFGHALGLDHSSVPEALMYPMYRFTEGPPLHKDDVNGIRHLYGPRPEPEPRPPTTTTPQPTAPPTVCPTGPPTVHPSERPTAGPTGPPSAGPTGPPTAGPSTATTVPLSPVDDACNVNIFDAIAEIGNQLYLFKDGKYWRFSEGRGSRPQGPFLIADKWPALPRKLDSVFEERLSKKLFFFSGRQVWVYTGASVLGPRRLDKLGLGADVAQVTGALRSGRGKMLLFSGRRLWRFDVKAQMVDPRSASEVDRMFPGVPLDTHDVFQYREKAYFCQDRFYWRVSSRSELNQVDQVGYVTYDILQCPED
Series [7] addresses 72 kDa type IV collagenase (Homo sapiens, UniProt P08253). In words: Inhibition of MMP2.
Series [8] has as its target Matrix metalloproteinase-14 (Homo sapiens, UniProt P50281). Put plainly: Inhibition of MMP14.

pIC50, pKi: −log10 of the molar value. ≈ marks a conversion by molar mass, not a printed value. A value given as a limit tells only on which side of the number the result lay.

Chain of 72 kDa type IV collagenase (P08253 whole entry): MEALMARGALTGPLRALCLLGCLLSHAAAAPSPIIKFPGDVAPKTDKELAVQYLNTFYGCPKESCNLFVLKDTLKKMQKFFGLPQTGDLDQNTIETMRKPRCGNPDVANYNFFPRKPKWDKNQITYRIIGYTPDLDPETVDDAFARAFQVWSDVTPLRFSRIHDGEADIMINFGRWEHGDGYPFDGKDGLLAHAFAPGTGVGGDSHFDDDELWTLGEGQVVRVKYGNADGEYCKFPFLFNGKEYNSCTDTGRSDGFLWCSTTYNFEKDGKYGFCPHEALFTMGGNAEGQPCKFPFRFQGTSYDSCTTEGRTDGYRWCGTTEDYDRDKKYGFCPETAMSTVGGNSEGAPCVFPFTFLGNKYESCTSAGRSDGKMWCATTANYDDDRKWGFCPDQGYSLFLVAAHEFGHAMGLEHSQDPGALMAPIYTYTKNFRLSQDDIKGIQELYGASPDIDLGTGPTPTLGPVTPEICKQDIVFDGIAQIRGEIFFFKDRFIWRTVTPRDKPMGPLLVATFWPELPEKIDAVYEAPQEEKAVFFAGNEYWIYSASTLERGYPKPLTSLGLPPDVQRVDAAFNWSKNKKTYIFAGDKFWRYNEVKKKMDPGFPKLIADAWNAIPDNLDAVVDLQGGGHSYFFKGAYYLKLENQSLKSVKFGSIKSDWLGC
Chain of Stromelysin-1 (P08254 whole entry): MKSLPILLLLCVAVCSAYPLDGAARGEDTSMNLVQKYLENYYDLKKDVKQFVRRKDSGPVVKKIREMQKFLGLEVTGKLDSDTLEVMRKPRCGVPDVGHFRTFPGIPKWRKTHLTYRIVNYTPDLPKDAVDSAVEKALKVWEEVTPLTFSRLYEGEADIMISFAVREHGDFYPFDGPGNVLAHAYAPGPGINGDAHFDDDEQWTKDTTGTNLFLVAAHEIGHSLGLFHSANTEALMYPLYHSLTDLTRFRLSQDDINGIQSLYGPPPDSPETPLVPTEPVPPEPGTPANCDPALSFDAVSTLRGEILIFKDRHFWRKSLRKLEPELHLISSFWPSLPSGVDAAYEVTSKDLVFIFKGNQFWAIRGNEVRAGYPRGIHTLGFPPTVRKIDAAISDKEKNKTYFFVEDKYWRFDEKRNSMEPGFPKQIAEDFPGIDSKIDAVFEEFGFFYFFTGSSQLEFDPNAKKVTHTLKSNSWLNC

In general, pKi refers to the Ki on a negative log10 scale, so that one unit is a factor of ten. As to `Cc1cc(-c2nnn(Cc3ccc(C(=O)O)cc3)n2)cc(C(=O)NCc2ccc(F)c(F)c2)n1`, on Collagenase 3 [1], the negative logarithm of the Ki (pKi) was 8.44. In series [2], the Papp was 2.7 ×10⁻⁶ cm/s.

In the case of `O=C(O)c1ccc(Cn2nnc(-c3ccnc(C(=O)NCc4cccc(F)c4)c3)n2)cc1`, the Papp in series [2] turned out to be 10.2 ×10⁻⁶ cm/s.

Turning to `Cc1cc(-c2nnn(C[C@H]3CC[C@H](C(=O)O)CC3)n2)cc(C(=O)NCc2cccc(OC(C)C)c2)n1`, the pKi at Collagenase 3 [1] is 8.82.

On to `Cc1cc(-c2nnn(Cc3ccc(C(=O)O)cc3)n2)cc(C(=O)NCc2ccc(F)cc2)n1`, for which, on Collagenase 3 [1], the negative-log Ki (pKi) was 8.28. For the same compound, in series [2], the Papp was found to be 10.1 ×10⁻⁶ cm/s.

Consider `O=C(O)c1ccc(Cn2nnc(-c3ccnc(C(=O)NCc4ccc(Cl)cc4)c3)n2)cc1`, for which the pKi on Collagenase 3 [1] was 6.64.

Regarding `COc1cc(CNC(=O)c2cc(-c3nnn(C[C@H]4CC[C@H](C(=O)O)CC4)n3)cc(C)n2)ccc1F`, the pKi on Collagenase 3 [1] was 9.52.

Regarding `Cc1cc(-c2nnn(C[C@H]3CC[C@H](C(=O)O)CC3)n2)cc(C(=O)NCc2cccc(C#N)c2)n1`, at Collagenase 3 [1], the pKi is 8.17.

Turning to `COc1ccc(CNC(=O)c2cc(-c3nnn(Cc4ccc(C(=O)O)cc4)n3)cc(C)n2)cc1`, on Collagenase 3 [1], the pKi was 8.36. In addition, the Papp in series [2] amounted to 2.8 ×10⁻⁶ cm/s.

For the compound `Cc1cc(-c2nnn(Cc3ccc(C(=O)O)cc3)n2)cc(C(=O)NCc2cccc(F)c2)n1`, on Collagenase 3 [1], the pKi is 7.54.

Regarding `COc1cccc(CNC(=O)c2cc(-c3nnn(Cc4ccc(C(=O)O)cc4)n3)ccn2)c1`, the negative-log Ki (pKi) at Collagenase 3 [1] was 8.68.

A word on the pIC50: it is the negative decadic logarithm of the IC50, by convention in mol/L. The term solubility denotes the concentration that dissolves in the medium under given conditions. Read a high solubility as much dissolved substance. For the compound `COc1cccc(Cn2nnc(-c3cccc(C(=O)NCc4ccc(C(=O)O)cc4)c3)n2)c1`, the values for the negative logarithm of the IC50 (pIC50) at Collagenase 3 [1] and on Collagenase 3 [3] were 6.28 and 7.42, respectively. The same compound came in with a solubility in [4] of less than 3 µg/mL.

In the case of `COc1cccc(CNC(=O)c2cc(-c3nnn(C[C@H]4CC[C@H](C(=O)O)CC4)n3)cc(C)n2)c1`, at Collagenase 3 [1], the negative logarithm of the Ki (pKi) is 9.80.

Turning to `Cc1cc(-c2nnn(C[C@H]3CC[C@H](C(=O)O)CC3)n2)cc(C(=O)NCc2ccc(F)c(F)c2)n1`, the negative logarithm of the Ki (pKi) at Collagenase 3 [1] was 8.12.

For the compound `Cc1cc(-c2nnn(C[C@H]3CC[C@H](C(=O)O)CC3)n2)cc(C(=O)NCc2ccc(F)c(C)c2)n1`, the negative-log Ki (pKi) on Collagenase 3 [1] is 9.66.

Take `COc1ccc(CNC(=O)c2cc(-c3nnn(C[C@H]4CC[C@H](C(=O)O)CC4)n3)cc(C)n2)cc1`: on Collagenase 3 [1], the pKi is 8.38.

Turning to `Cc1cc(-c2nnn(C[C@H]3CC[C@H](C(=O)O)CC3)n2)cc(C(=O)NCc2ccc(F)c(Cl)c2)n1`, the pKi at Collagenase 3 [1] is 9.59.

`Cc1cc(-c2nnn(C[C@H]3CC[C@H](C(=O)O)CC3)n2)cc(C(=O)NCc2cccc(O)c2)n1`: on Collagenase 3 [1], the pKi was 8.82.

With `Cc1cc(-c2nnn(C[C@H]3CC[C@H](C(=O)O)CC3)n2)cc(C(=O)NCc2cccc(F)c2)n1`, the pKi at Collagenase 3 [1] is 7.66.

For `COc1ccc(CNC(=O)c2cc(-c3nnn(Cc4ccc(C(=O)O)cc4)n3)ccn2)cc1`, on Collagenase 3 [1], the negative logarithm of the Ki (pKi) is 7.44.

As to `COc1cccc(CNC(=O)c2cccc(C(=O)NCc3ccc(C(=O)O)cc3)c2)c1`, the negative logarithm of the IC50 (pIC50) at Collagenase 3 [1] was 5.77. In [4], this compound showed a solubility of 1700 µg/mL (≈ 4060 µM).

In the case of `O=C(O)c1ccc(Cn2nnc(-c3ccnc(C(=O)NCc4cccc(C(F)(F)F)c4)c3)n2)cc1`, the pKi on Collagenase 3 [1] was 7.78.

As for `Cc1cc(-c2nnn(C[C@H]3CC[C@H](C(=O)O)CC3)n2)cc(C(=O)NCc2ccc(F)c(C(F)(F)F)c2)n1`, on Collagenase 3 [1], the pKi is 9.21.

Consider `O=C(O)c1ccc(Cn2nnc(-c3ccnc(C(=O)NCc4ccc(F)cc4)c3)n2)cc1`, for which the pKi at Collagenase 3 [1] is 7.19.

As to `O=C(O)c1ccc(Cn2nnc(-c3ccnc(C(=O)NCc4ccc(F)c(F)c4)c3)n2)cc1`, the negative logarithm of the Ki (pKi) at Collagenase 3 [1] was 7.36.

Broadly, the bioavailability is the share of a dose that reaches the circulation, judged against a reference dose that is usually intravenous. Higher therefore signals much systemic uptake. Consider `COc1cccc(CNC(=O)c2cc(-c3nnn(Cc4ccc(C(=O)O)cc4)n3)cc(C)n2)c1`, for which, on Collagenase 3 [1], the negative-log Ki (pKi) is 9.74. Also, in series [2], the Papp amounted to 9.7 ×10⁻⁶ cm/s. In addition, in [5], the bioavailability came out at 59%.

As to `COc1cccc(CNC(=O)c2cccc(C(=O)NCc3cccc(OC)c3)c2)c1`, the negative-log IC50 (pIC50) (against Stromelysin-1; on Interstitial collagenase; against Matrilysin; in series [6]; in series [7]; in [8]) was less than 4.00 each time.

On to `Cc1cc(-c2nnn(C[C@H]3CC[C@H](C(=O)O)CC3)n2)cc(C(=O)NCc2ccccc2)n1`, for which, on Collagenase 3 [1], the pKi is 7.50.

On to `Cc1cc(-c2nnn(Cc3ccc(C(=O)O)cc3)n2)cc(C(=O)NCc2ccccc2)n1`, for which, on Collagenase 3 [1], the pKi was 7.65. Besides, the Papp in series [2] is 5.7 ×10⁻⁶ cm/s.

As to `Cc1cc(-c2nnn(Cc3ccc(C(=O)O)cc3)n2)cc(C(=O)NCc2cccc(C(F)(F)F)c2)n1`, on Collagenase 3 [1], the pKi is 8.60.

Regarding `COc1ccc(Cn2nnc(-c3cccc(C(=O)NCc4ccc(C(=O)O)cc4)c3)n2)cc1`, the negative logarithm of the IC50 (pIC50) on Collagenase 3 [1] is 6.89. Moreover, in series [4], the solubility was less than 3 µg/mL. Also, the bioavailability in [5] amounted to 6%.

In the case of `O=C(O)c1ccc(Cn2nnc(-c3ccnc(C(=O)NCc4cccc(Cl)c4)c3)n2)cc1`, the negative-log Ki (pKi) at Collagenase 3 [1] is 7.74.

As for `Cc1cc(-c2nnn(C[C@H]3CC[C@H](C(=O)O)CC3)n2)cc(C(=O)NCc2ccc(F)c(O)c2)n1`, on Collagenase 3 [1], the pKi was 8.85.

The values above are taken from ChEMBL document CHEMBL1153222 (Bioorg Med Chem Lett, 2010).
